Each block holds one molecule with its values, some of them ahead of it.
Assays:
[1] = target: Cyclin-dependent kinase 2 (Homo sapiens, UniProt P24941); experiment: Selectivity interaction (KinomeScan (DiscoverX)) EUB0000045b CDK2
[2] = target: Mitogen-activated protein kinase 14 (Homo sapiens, UniProt Q16539); experiment: Selectivity interaction (ActivX KiNativ screen (kinase selectivity in THP-1 cell lysates)) EUB0000639a MAPK14; type: subcellular; conditions: lysate, at 0.01 µM
[3] = target: Calcium/calmodulin-dependent protein kinase type 1D (Homo sapiens) (UniProt Q8IU85); experiment: Selectivity interaction (KinomeScan (DiscoverX)) EUB0000229b CAMK1D; conditions: at 10 µM
Chain of Calcium/calmodulin-dependent protein kinase type 1D (Homo sapiens) (Q8IU85 whole entry, looked up): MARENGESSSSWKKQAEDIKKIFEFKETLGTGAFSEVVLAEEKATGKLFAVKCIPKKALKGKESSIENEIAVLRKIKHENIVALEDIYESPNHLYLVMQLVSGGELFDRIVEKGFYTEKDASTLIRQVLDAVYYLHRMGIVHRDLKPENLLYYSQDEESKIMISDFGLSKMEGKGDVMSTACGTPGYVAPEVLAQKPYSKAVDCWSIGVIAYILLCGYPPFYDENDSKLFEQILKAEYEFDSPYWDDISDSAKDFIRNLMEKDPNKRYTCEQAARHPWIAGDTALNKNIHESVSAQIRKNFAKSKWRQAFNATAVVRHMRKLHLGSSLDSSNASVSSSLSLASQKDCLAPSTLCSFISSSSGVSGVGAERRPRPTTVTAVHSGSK

[4] = target: T1, Dual serine/threonine and tyrosine protein kinase (Homo sapiens) (UniProt Q6XUX3); experiment: Selectivity interaction (ProQinase) EUB0000171b DSTYK
T1 sequence (whole entry): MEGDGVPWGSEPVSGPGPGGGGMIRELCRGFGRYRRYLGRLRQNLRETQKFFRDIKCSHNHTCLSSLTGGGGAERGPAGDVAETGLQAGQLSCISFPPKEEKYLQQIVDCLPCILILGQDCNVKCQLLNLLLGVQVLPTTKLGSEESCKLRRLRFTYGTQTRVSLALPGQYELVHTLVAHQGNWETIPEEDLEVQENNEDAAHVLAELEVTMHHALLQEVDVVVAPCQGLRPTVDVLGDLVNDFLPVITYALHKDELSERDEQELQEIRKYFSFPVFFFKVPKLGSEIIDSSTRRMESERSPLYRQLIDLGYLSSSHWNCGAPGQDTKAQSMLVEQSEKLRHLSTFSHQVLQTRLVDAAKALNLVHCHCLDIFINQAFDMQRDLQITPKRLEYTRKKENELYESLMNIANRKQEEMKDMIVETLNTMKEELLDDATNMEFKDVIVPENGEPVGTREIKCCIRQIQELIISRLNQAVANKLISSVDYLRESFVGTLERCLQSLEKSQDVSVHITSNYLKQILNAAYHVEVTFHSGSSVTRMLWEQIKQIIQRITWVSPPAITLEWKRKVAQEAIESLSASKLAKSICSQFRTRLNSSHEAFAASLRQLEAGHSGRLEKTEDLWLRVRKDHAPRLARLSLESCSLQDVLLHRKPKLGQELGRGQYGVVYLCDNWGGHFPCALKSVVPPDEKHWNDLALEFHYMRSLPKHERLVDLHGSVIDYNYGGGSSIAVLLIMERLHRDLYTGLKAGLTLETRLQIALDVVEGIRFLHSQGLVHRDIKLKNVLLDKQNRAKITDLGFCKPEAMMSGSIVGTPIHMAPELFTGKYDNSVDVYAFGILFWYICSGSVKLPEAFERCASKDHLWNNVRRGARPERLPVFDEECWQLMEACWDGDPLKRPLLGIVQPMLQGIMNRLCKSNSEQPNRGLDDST

[5] = target: T2, Mitogen-activated protein kinase kinase kinase 2 (Homo sapiens) (UniProt Q9Y2U5); experiment: Selectivity interaction (KinomeScan (DiscoverX)) EUB0001049a MAP3K2; conditions: at 1 µM
T2 sequence (whole entry): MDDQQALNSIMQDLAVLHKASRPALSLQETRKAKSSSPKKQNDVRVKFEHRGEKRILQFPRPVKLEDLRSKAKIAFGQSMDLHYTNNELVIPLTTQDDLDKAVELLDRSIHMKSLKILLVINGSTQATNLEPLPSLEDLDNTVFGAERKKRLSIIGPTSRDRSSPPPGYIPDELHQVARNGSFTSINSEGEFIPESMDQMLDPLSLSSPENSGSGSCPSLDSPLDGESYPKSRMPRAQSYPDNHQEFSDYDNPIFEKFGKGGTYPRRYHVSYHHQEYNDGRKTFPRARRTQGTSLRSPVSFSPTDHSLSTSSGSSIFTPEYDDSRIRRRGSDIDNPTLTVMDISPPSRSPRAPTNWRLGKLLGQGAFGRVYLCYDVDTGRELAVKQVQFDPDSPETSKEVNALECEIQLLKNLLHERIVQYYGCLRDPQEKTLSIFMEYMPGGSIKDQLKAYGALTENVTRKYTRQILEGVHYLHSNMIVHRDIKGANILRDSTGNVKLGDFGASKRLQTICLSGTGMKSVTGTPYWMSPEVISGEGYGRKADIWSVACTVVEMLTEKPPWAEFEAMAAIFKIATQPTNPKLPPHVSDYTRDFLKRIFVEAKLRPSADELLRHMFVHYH

[6] = target: Serine/threonine-protein kinase PAK 6 (Homo sapiens) (UniProt Q9NQU5); experiment: Selectivity interaction (KinomeScan (DiscoverX)) EUB0000666a PAK6; conditions: at 10 µM
Chain of Serine/threonine-protein kinase PAK 6 (Homo sapiens) (Q9NQU5 whole entry, looked up): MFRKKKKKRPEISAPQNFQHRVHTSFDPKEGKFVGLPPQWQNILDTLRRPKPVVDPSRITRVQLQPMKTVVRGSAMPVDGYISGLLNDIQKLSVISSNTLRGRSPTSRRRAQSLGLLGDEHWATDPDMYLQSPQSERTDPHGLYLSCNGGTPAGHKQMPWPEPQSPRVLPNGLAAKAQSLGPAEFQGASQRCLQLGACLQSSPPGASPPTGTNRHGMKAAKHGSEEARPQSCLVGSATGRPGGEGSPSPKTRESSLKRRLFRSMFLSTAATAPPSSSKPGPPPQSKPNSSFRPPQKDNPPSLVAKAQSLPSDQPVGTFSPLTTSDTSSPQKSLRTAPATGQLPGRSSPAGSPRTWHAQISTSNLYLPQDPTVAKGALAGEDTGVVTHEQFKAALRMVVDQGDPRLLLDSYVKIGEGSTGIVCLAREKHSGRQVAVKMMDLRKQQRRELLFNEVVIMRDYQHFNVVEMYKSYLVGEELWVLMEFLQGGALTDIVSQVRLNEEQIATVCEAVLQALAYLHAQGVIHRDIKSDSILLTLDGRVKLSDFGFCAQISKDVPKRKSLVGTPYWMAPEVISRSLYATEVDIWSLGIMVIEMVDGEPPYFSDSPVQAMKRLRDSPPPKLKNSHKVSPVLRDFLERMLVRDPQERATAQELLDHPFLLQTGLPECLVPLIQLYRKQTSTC

[7] = target: T3, Mitogen-activated protein kinase kinase kinase kinase 3 (Homo sapiens) (UniProt Q8IVH8); experiment: Selectivity interaction (KinomeScan (DiscoverX)) EUB0000092b MAP4K3; conditions: at 10 µM
T3 sequence (whole entry): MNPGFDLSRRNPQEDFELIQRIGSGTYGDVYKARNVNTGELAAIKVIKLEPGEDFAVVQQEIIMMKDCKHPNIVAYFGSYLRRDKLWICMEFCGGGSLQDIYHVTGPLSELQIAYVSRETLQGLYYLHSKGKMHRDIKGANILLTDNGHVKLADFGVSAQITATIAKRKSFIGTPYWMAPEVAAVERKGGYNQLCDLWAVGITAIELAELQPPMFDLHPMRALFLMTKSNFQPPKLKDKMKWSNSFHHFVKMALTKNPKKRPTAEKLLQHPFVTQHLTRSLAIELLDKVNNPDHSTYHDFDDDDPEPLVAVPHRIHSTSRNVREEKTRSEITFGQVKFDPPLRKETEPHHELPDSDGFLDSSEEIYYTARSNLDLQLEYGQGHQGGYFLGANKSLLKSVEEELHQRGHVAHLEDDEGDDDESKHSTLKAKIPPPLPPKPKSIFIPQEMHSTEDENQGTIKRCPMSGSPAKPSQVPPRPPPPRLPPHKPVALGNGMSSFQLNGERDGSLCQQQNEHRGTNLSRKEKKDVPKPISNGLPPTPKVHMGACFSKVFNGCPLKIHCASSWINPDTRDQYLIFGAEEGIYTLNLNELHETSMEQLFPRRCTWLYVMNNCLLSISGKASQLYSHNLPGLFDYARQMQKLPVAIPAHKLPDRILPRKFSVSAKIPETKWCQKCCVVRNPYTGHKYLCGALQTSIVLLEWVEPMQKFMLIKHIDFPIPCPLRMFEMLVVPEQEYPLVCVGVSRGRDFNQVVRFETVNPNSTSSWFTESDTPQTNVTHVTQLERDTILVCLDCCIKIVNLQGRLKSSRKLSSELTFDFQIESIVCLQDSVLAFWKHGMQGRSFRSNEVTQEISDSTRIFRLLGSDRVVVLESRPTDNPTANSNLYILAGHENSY

Chain of Mitogen-activated protein kinase 14 (Q16539 whole entry): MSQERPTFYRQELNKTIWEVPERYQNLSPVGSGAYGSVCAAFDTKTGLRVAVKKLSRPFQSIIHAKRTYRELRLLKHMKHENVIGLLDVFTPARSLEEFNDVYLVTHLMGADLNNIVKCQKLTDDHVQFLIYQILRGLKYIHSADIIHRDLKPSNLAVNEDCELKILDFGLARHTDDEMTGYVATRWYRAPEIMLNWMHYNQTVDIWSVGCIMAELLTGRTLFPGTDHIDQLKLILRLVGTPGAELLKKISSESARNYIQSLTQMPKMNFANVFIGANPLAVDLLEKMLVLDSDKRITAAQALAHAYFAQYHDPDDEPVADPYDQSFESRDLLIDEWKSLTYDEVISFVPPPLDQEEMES

Compound: C=CC(=O)Nc1cc(-n2c(=O)ccc3cnc4ccc(-c5ccc(NS(C)(=O)=O)cc5)cc4c32)ccc1C
% of control ([1]; at 1 µM): 95%
% of control ([1]; at 10 µM): 100%

% of inhibition [2]: -4.1%
Compound: CC[C@@H]1[C@H](F)C(=O)N[C@@H]1COc1nccc2cc(C(N)=O)c(OC)cc12 [ZIMLOVISERTIB]

Compound: COc1cc(N(C)c2ccnc3ccc(C(F)(F)F)cc23)cc(OC)c1OC
% binding [3]: 59%

% of control ([4]; at 1 µM): 90%
% of control ([4]; at 5 µM): 67%
Compound: C=CC(=O)Nc1cccc(C(=O)Nc2ccc(Nc3cc(-c4[nH]c(SC)nc4C)ccn3)cc2)c1

Compound: COc1cc(Nc2nc(C)cc(-c3cnn4nc(OC)ccc34)n2)cc(C(F)(F)F)c1
% of control [5]: 87%

Compound: O=C(NOC[C@H](O)CO)c1ccc(F)c(F)c1Nc1ccc(I)cc1F
% of control [6]: 94%

Compound: CCC(=O)N1CCN(c2ccc(-n3c(=O)ccc4cnc5ccc(-c6cnc7ccccc7c6)cc5c43)cc2C(F)(F)F)CC1
% of control [7]: 1.9%
